Tests used:
[1] = target: T1, KRAS G12D (Homo sapiens, UniProt P01116, G12D); test: HTRF assay, KRAS G12D interaction with SOS1; type: biochemical; conditions: bins <500 nM / 500 nM to 1000 nM, read-out: Inhibition of KRAS G12D (IC50)
T1 construct: made in house; host or cells: E. coli, e.g. BL21 (DE3)

[2] = target: T2, KRAS WT (Homo sapiens, UniProt P01116); test: HTRF assay, wildtype KRAS interaction with SOS1; type: biochemical; conditions: bins <500 nM / 500 nM to 1000 nM, read-out: Inhibition of KRAS WT (IC50)
T2 construct: made in house; host or cells: E. coli, e.g. BL21 (DE3)

[3] = target: T3, KRAS G12V (Homo sapiens, UniProt P01116, G12V); test: HTRF assay, KRAS G12V interaction with SOS1; type: biochemical; conditions: bins <500 nM / 500 nM to 1000 nM, read-out: Inhibition of KRAS G12V (IC50)
T3 construct: made in house; host or cells: E. coli, e.g. BL21 (DE3)

[4] = target: T4, KRAS G12S (Homo sapiens, UniProt P01116, G12S); test: HTRF assay, KRAS G12S interaction with SOS1; type: biochemical; conditions: bins <500 nM / 500 nM to 1000 nM, read-out: Inhibition of KRAS G12S (IC50)
T4 construct: made in house; host or cells: E. coli, e.g. BL21 (DE3)

[5] = test system: MiaPaca2 cells; test: Ras cellular assay, growth of cells with K-Ras G12C mutation; type: cell-based; conditions: Homo sapiens, MIA PaCa-2; cell proliferation assay; bins ≤500 nM / >500 nM; read-out: Inhibition of MiaPaca2 Cells (IC50)
Summary of the method: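 Anchorage-independent growth: G12C-mutant MIA PaCa-2 plated in soft agar, time-zero plate read the next day when compound was dosed (final DMSO 0.3%). After growth to day 10, MTS-type absorbance at 490/660 nm relative to time zero gave IC50 via four-parameter fitting.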

T4 sequence (P01116 1-188 isoform P01116-2 G12S): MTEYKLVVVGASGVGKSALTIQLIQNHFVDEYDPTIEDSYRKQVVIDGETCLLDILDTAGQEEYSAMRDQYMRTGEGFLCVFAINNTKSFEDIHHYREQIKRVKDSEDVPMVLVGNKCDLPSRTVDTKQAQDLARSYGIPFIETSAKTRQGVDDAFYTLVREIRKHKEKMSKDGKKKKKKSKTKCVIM
T3 sequence (P01116 1-188 isoform P01116-2 G12V): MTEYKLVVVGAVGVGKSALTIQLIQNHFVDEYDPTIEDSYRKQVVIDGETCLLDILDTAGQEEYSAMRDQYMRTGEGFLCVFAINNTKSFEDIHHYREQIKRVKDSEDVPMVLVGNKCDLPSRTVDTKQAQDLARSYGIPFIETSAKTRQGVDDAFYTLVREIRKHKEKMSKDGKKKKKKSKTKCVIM
T2 sequence (P01116 1-188 isoform P01116-2): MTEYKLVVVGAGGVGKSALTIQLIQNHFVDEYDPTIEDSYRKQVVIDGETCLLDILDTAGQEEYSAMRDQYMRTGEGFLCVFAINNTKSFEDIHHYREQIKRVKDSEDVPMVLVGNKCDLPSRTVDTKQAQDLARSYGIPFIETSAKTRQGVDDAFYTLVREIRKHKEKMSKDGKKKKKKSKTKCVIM
T1 sequence (P01116 1-188 isoform P01116-2 G12D): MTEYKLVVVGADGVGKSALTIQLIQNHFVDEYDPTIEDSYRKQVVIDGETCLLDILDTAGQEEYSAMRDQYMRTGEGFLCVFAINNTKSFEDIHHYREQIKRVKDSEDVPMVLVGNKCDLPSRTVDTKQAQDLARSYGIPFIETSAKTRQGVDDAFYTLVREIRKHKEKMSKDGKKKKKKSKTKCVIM

IC50 [1] [nM]	IC50 [2] [nM]	IC50 [3] [nM]	IC50 [4] [nM]	IC50 [5] [nM]	SMILES
< 500	< 500	< 500	< 500	≤ 500	C[C@@H]1[C@H](N(C)c2nc(OC[C@@]34CCCN3C[C@H](F)C4)nc3c(F)c(-c4ccc(F)c5sc(N)c(C#N)c45)c(Cl)cc23)CCN1C(=O)n1cnc(C#N)c1 [Compound 199, 1-((2R,3R)-3-((7-(2-amino-3-cyano-7-fluorobenzo[b]thiophen-4-yl)-6-chloro-8-fluoro-2-(((2R,7aS)-2-fluorotetrahydro-1H-pyrrolizin-7a(5H)-yl)methoxy)quinazolin-4-yl)(methyl)amino)-2-methylpyrrolidine-1-carbonyl)-1H-imidazole-4-carbonitrile]
< 500	< 500	< 500	< 500	≤ 500	C[C@@H]1[C@H](N(C)c2nc(OC[C@@]34CCCN3C[C@H](F)C4)nc3c(F)c(-c4ccc(F)c5sc(N)c(C#N)c45)c(C(F)(F)F)cc23)CCN1C(=O)n1ccnc1 [Compound 200, 4-(4-(((2R,3R)-1-(1H-imidazole-1-carbonyl)-2-methylpyrrolidin-3-yl)(methyl)amino)-8-fluoro-2-(((2R,7aS)-2-fluorotetrahydro-1H-pyrrolizin-7a(5H)-yl)methoxy)-6-(trifluoromethyl)quinazolin-7-yl)-2-amino-7-fluorobenzo[b]thiophene-3-carbonitrile]
< 500	< 500	< 500	< 500	≤ 500	C[C@@H]1[C@H](N(C)c2nc(OC[C@@]34CCCN3C[C@H](F)C4)nc3c(F)c(-c4ccc(F)c5sc(N)c(C#N)c45)c(Cl)cc23)CCN1C(=O)n1ccnc1C1CC1 [Compound 201, 2-amino-4-(6-chloro-4-(((2R,3R)-1-(2-cyclopropyl-1H-imidazole-1-carbonyl)-2-methylpyrrolidin-3-yl)(methyl)amino)-8-fluoro-2-(((2R,7aS)-2-fluorotetrahydro-1H-pyrrolizin-7a(5H)-yl)methoxy)quinazolin-7-yl)-7-fluorobenzo[b]thiophene-3-carbonitrile]
< 500	< 500	< 500	< 500	≤ 500	Cc1c(C#N)ncn1C(=O)N1C[C@]2(CC[C@H](C)N(c3nc(OC[C@@]45CCCN4C[C@H](F)C5)nc4c(F)c(-c5ccc(F)c6sc(N)c(C#N)c56)c(Cl)cc34)C2)[C@H]1C1(C)CC1 [Compound 202, 1-((1R,4R,7S)-6-(7-(2-amino-3-cyano-7-fluorobenzo[b]thiophen-4-yl)-6-chloro-8-fluoro-2-(((2R,7aS)-2-fluorotetrahydro-1H-pyrrolizin-7a(5H)-yl)methoxy)quinazolin-4-yl)-7-methyl-1-(1-methylcyclopropyl)-2,6-diazaspiro[3.5]nonane-2-carbonyl)-5-methyl-1H-imidazole-4-carbonitrile]
< 500	< 500	< 500	< 500	≤ 500	CCN(c1nc(OCC2(CN3CC4CCC(C3)O4)CC2)nc2c(F)c(-c3ccc(F)c4sc(N)c(C#N)c34)c(C(F)(F)F)cc12)[C@@H]1CCN(C(=O)n2cnc(Cl)n2)[C@@H]1C [Compound 204, (4S)-4-(2-((1-((8-oxa-3-azabicyclo[3.2.1]octan-3-yl)methyl)cyclopropyl)methoxy)-4-(((2R,3R)-1-(3-chloro-1H-1,2,4-triazole-1-carbonyl)-2-methylpyrrolidin-3-yl)(ethyl)amino)-8-fluoro-6-(trifluoromethyl)quinazolin-7-yl)-2-amino-7-fluorobenzo[b]thiophene-3-carbonitrile]
< 500	< 500	< 500	< 500	≤ 500	C[C@@H]1[C@H](N(C)c2nc(OC[C@@]34CCCN3C[C@H](F)C4)nc3c(F)c(-c4ccc(F)c5sc(N)c(C#N)c45)c(Cl)cc23)CCN1C(=O)n1ccc(C#N)c1 [Compound 205, 1-((2R,3R)-3-((7-(2-amino-3-cyano-7-fluorobenzo[b]thiophen-4-yl)-6-chloro-8-fluoro-2-(((2R,7aS)-2-fluorotetrahydro-1H-pyrrolizin-7a(5H)-yl)methoxy)quinazolin-4-yl)(methyl)amino)-2-methylpyrrolidine-1-carbonyl)-1H-pyrrole-3-carbonitrile]
< 500	500 to 1000	< 500	< 500	≤ 500	CCN(c1nc(OC[C@@]23CCCN2C[C@H](F)C3)nc2c(F)c(-c3cc(N)c(F)c(C)c3C(F)(F)F)ncc12)[C@@H]1CCN(C(=O)n2cnc(Cl)n2)[C@@H]1C [Compound 208, ((2R,3R)-3-((7-(5-amino-4-fluoro-3-methyl-2-(trifluoromethyl)phenyl)-8-fluoro-2-(((2R,7aS)-2-fluorotetrahydro-1H-pyrrolizin-7a(5H)-yl)methoxy)pyrido[4,3-d]pyrimidin-4-yl)(ethyl)amino)-2-methylpyrrolidin-1-yl)(3-chloro-1H-1,2,4-triazol-1-yl)methanone]
< 500	< 500	< 500	< 500	≤ 500	Cc1cn(C(=O)N2C[C@]3(CC[C@H](C)N(c4nc(OC[C@@]56CCCN5C[C@H](F)C6)nc5c(F)c(-c6ccc(F)c7sc(N)c(C#N)c67)c(Cl)cc45)C3)[C@H]2C2(C)CC2)cn1 [Compound 210, 2-amino-4-(6-chloro-8-fluoro-2-(((2R,7aS)-2-fluorotetrahydro-1H-pyrrolizin-7a(5H)-yl)methoxy)-4-((1R,4R,7S)-7-methyl-2-(4-methyl-1H-imidazole-1-carbonyl)-1-(1-methylcyclopropyl)-2,6-diazaspiro[3.5]nonan-6-yl)quinazolin-7-yl)-7-fluorobenzo[b]thiophene-3-carbonitrile]

More lines, now with the values behind:

SMILES	IC50 [1] [nM]	IC50 [2] [nM]	IC50 [3] [nM]	IC50 [4] [nM]	IC50 [5] [nM]
Cc1nc(C#N)cn1C(=O)N1CC2CCN(c3nc(OC[C@@]45CCCN4C[C@H](F)C5)nc4c(F)c(-c5ccc(F)c6sc(N)c(C#N)c56)c(Cl)cc34)C2C1 (stereo partly drawn) [Compound 192, 1-(1-(7-(2-amino-3-cyano-7-fluorobenzo[b]thiophen-4-yl)-6-chloro-8-fluoro-2-(((2R,7aS)-2-fluorotetrahydro-1H-pyrrolizin-7a(5H)-yl)methoxy)quinazolin-4-yl)octahydropyrrolo[3,4-b]pyrrole-5-carbonyl)-2-methyl-1H-imidazole-4-carbonitrile]	< 500	< 500	< 500	< 500	≤ 500
C[C@@H]1[C@H](N(C)c2nc(OC[C@@]34CCCN3C[C@H](F)C4)nc3c(F)c(-c4ccc(F)c5sc(N)c(C#N)c45)c(Cl)cc23)CCN1C(=O)n1ccnc1C(F)(F)F [Compound 194, 2-amino-4-(6-chloro-8-fluoro-2-(((2R,7aS)-2-fluorotetrahydro-1H-pyrrolizin-7a(5H)-yl)methoxy)-4-(methyl((2R,3R)-2-methyl-1-(2-(trifluoromethyl)-1H-imidazole-1-carbonyl)pyrrolidin-3-yl)amino)quinazolin-7-yl)-7-fluorobenzo[b]thiophene-3-carbonitrile]	< 500	< 500	< 500	< 500	≤ 500
CCN(c1nc(OC[C@@]23CCCN2C[C@H](F)C3)nc2c(F)c(-c3cccc4sc(N)c(C#N)c34)c(Cl)cc12)[C@@H]1CCN(C(=O)n2cc(C)nc2C)[C@@H]1C [Compound 195, 2-amino-4-(6-chloro-4-(((2R,3R)-1-(2,4-dimethyl-1H-imidazole-1-carbonyl)-2-methylpyrrolidin-3-yl)(ethyl)amino)-8-fluoro-2-(((2R,7aS)-2-fluorotetrahydro-1H-pyrrolizin-7a(5H)-yl)methoxy)quinazolin-7-yl)benzo[b]thiophene-3-carbonitrile]	< 500	< 500	< 500	< 500	≤ 500
CCN(c1nc(OC[C@@]23CCCN2C[C@H](F)C3)nc2c(F)c(-c3cc(N)c(F)c(C)c3C(F)(F)F)ncc12)[C@@H]1CCN(C(=O)n2cc(C)nc2C)[C@@H]1C [Compound 196, ((2R,3R)-3-((7-(5-amino-4-fluoro-3-methyl-2-(trifluoromethyl)phenyl)-8-fluoro-2-(((2R,7aS)-2-fluorotetrahydro-1H-pyrrolizin-7a(5H)-yl)methoxy)pyrido[4,3-d]pyrimidin-4-yl)(ethyl)amino)-2-methylpyrrolidin-1-yl)(2,4-dimethyl-1H-imidazol-1-yl)methanone]	500 to 1000	< 500	< 500	< 500	≤ 500
CC[C@@H]1[C@H](N(C)c2nc(OC[C@@]34CCCN3C[C@H](F)C4)nc3c(F)c(-c4ccc(F)c5sc(N)c(C#N)c45)c(Cl)cc23)CCN1C(=O)n1ccnc1 [Compound 198, 2-amino-4-(6-chloro-4-(((2R,3R)-2-ethyl-1-(1H-imidazole-1-carbonyl)pyrrolidin-3-yl)(methyl)amino)-8-fluoro-2-(((2R,7aS)-2-fluorotetrahydro-1H-pyrrolizin-7a(5H)-yl)methoxy)quinazolin-7-yl)-7-fluorobenzo[b]thiophene-3-carbonitrile]	< 500	< 500	< 500	< 500	≤ 500

— patent publication US20260217735A1, “HETEROCYCLES AND USES THEREOF” (Kumquat Biosciences Inc., priority 2023, published 2026)
